As usually defined, the IC50 is the midpoint of a concentration-inhibition curve.

The text below walks through data of patent US20140315889A1, “HYDROXAMATE DERIVATIVES FOR HDAC INHIBITOR, AND THE PHARMACEUTICAL COMPOSITION COMPRISING THEREOF” (CHONG KUN DANG PHARMACEUTICAL CORP., priority 2011, published 2014).

The target of experiment [1] is T1, human recombinant HDAC6 (Homo sapiens, UniProt Q9UBN7).
T1 construct: purchased Calibiochem Co. (so in the source) 382180
T1 sequence (Q9UBN7 1-1215): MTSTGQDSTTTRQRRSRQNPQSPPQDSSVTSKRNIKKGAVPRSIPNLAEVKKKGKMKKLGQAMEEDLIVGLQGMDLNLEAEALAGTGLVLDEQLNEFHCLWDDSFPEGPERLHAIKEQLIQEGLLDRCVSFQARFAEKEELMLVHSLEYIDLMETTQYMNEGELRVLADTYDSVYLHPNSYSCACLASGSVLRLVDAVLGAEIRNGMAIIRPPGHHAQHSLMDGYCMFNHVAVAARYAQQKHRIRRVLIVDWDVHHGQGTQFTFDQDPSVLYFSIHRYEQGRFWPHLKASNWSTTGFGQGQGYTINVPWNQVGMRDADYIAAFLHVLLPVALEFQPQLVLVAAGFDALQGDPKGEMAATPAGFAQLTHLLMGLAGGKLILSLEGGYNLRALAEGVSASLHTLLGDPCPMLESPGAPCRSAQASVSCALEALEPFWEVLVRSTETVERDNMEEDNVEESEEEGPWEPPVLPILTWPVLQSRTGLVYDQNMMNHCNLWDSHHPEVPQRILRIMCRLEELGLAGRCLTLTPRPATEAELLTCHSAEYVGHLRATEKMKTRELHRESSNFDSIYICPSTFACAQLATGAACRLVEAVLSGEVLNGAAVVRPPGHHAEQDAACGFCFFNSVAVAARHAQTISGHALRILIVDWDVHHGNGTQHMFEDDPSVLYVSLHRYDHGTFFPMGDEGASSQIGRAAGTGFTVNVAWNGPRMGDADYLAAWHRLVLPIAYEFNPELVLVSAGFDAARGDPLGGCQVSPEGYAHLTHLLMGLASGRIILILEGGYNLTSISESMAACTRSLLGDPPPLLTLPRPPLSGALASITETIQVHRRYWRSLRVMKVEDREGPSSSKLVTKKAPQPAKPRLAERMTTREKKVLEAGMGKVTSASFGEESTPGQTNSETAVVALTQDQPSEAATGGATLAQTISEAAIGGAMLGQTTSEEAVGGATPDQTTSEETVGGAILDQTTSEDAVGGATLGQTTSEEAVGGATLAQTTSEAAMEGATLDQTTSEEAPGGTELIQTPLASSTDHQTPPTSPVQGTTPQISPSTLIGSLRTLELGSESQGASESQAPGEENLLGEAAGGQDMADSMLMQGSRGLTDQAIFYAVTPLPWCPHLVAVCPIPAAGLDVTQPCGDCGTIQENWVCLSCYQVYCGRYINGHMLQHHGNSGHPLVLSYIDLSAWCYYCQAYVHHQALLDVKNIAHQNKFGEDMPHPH
Briefly: HDAC enzyme activity test, HDAC6. As to conditions: Table 12; for Selectivity for HDAC6, HD1/HD6: ratio HDAC1 IC50 / HDAC6 IC50; for IC50: read-out: Inhibition ability (IC50) HDAC6. It counts as biochemical. Here is the method: (§1) Then, 0.3 μg of enzyme and 10 μM of substrate per well were added, reacted at 30° C. for 60 minutes. Thereto, Fluor de Lys® Developer II (BML-KI176) was added and reacted for 30 minutes. […] From the data, the respective IC50 were calculated by GraphPad Prism 4.0 program.

For experiment [2], the target named is T2, Human recombinant HDAC1 (Homo sapiens, UniProt Q13547).
T2 construct: purchased Enzo Life Science Co. (named for the kit; assigned to the enzyme from the BML- catalogue prefix) BML-SE456
The experiment in a line: HDAC enzyme activity test, HDAC1. The format is biochemical. Conditions: Table 12; read-out: Inhibition ability (IC50) HDAC1. Here is the method:
as §1

T2 sequence (Q13547 whole entry): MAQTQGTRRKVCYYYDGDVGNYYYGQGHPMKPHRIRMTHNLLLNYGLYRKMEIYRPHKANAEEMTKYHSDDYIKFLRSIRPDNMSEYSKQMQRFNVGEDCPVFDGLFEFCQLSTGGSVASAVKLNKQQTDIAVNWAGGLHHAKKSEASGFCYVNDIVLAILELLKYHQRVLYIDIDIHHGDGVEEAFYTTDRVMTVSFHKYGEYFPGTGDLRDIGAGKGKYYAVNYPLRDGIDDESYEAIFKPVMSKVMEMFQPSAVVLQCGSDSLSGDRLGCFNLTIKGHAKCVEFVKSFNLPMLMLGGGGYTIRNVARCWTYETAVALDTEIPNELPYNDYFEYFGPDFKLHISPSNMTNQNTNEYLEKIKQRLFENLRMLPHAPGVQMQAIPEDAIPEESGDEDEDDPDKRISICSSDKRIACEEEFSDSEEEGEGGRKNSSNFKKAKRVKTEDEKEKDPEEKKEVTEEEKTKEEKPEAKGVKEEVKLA

For `CC1(C)CC(=O)c2c(n(CCCCCC(=O)NO)c3ccc(F)c(F)c23)C1` [Compound 74, 6-(5,6-difluoro-2,2-dimethyl-4-oxo-1,2,3,4-tetrahydrocarbazol-9-yl)-N-hydroxyhexanamide], in experiment [1], the “Selectivity for HDAC6, HD1/HD6” value came to 33.3 and the IC50 is 0.141 µM. For the same compound, the IC50 in experiment [2] stood at 4.72 µM.
Taken in the same sequence, the figures for `CC1(C)CC(=O)c2c(n(CCCCCC(=O)NO)c3cc(F)ccc23)C1` [Compound 76, 6-(7-fluoro-2,2-dimethyl-4-oxo-1,2,3,4-tetrahydrocarbazol-9-yl)-N-hydroxyhexanamide] were 30.7, 0.171 µM and 5.23 µM.
For `Cc1nccn1CC1CCc2c(c3ccccc3n2Cc2ccc(C(=O)NO)cc2)C1=O` (stereo not drawn) [Compound 85, N-hydroxy-4-((3-((2-methyl-1H-imidazole-1-yl)methyl)-4-oxo-1,2,3,4-tetrahydrocarbazol-9-yl)methyl)benzamide] the same measures were 225, 0.0113 µM and 2.55 µM.
Regarding `O=C(NO)c1ccc(Cn2c3c(c4ccccc42)C(=O)C(CN2CCCCC2)CC3)cc1` (stereo not drawn) [Compound 86, N-hydroxy-4-((4-oxo-3-(piperidin-1-ylmethyl)-1,2,3,4-tetrahydrocarbazol-9-yl)methyl)benzamide], in experiment [1], the “Selectivity for HDAC6, HD1/HD6” value amounted to 286.1 and the IC50 amounted to 0.00994 µM. For the same compound, in experiment [2], the IC50 is 2.84 µM.
For `O=C(NO)c1ccc(Cn2c3c(c4ccccc42)C(=O)C(CN2CCCC2)CC3)cc1` (stereo not drawn) [Compound 88, N-hydroxy-4-((4-oxo-3-(pyrrolidin-1-ylmethyl)-1,2,3,4-tetrahydrocarbazol-9-yl)methyl)benzamide] the same measures were 358.7, 0.0111 µM and 3.97 µM.
For `O=C(NO)c1ccc(Cn2c3c(c4ccccc42)C(=O)CCC3)cc1` [Compound 99, N-hydroxy-4-((4-oxo-1,2,3,4-tetrahydrocarbazol-9-yl)methyl)benzamide] the same measures were 163.9, 0.0164 µM and 2.68 µM.
Taken in the same sequence, the figures for `Cc1nn(Cc2ccc(C(=O)NO)cc2)c2c1C(=O)CC(C)(C)C2` [Compound 101, N-hydroxy-4-((3,6,6-trimethyl-4-oxo-4,5,6,7-tetrahydroindazol-1-yl)methyl)benzamide] were 135.1, 0.0122 µM and 1.65 µM.
In the case of `CC1CN(CC2CCc3c(c4ccccc4n3Cc3ccc(C(=O)NO)cc3)C2=O)CC(C)O1` (stereo not drawn) [Compound 110, 4-((3-((2,6-dimethylmorpholino)methyl)-4-oxo-1,2,3,4-tetrahydrocarbazol-9-yl)methyl)-N-hydroxybenzamide], the “Selectivity for HDAC6, HD1/HD6” value in experiment [1] amounted to 80. Further, the values for the 50% inhibitory concentration (IC50) in experiment [1] and in experiment [2] were 0.0112 µM and 0.896 µM, respectively.
For `CN1CCN(CC2CCc3c(c4ccccc4n3Cc3ccc(C(=O)NO)cc3)C2=O)CC1` (stereo not drawn) [Compound 111, N-hydroxy-4-((3-((4-methylpiperazin-1-yl)methyl)-4-oxo-1,2,3,4-tetrahydrocarbazol-9-yl)methyl)benzamide] the same measures were 338.2, 0.0122 µM and 4.14 µM.
Take `CCN1CCN(CC2CCc3c(c4ccccc4n3Cc3ccc(C(=O)NO)cc3)C2=O)CC1` (stereo not drawn) [Compound 112, 4-((3-((4-ethylpiperazin-1-yl)methyl)-4-oxo-1,2,3,4-tetrahydrocarbazol-9-yl)methyl)-N-hydroxy benzamide]: in experiment [1], the “Selectivity for HDAC6, HD1/HD6” value was 310.6 and the IC50 was 0.0149 µM. In addition, in experiment [2], the IC50 came out at 4.62 µM.
Taken in the same sequence, the figures for `CC(C)N1CCN(CC2CCc3c(c4ccccc4n3Cc3ccc(C(=O)NO)cc3)C2=O)CC1` (stereo not drawn) [Compound 113, N-hydroxy-4-((3-((4-isopropylpiperazin-1-yl)methyl)-4-oxo-1,2,3,4-tetrahydrocarbazol-9-yl)methyl)benzamide] were 287.1, 0.0085 µM and 2.44 µM.
